Drawing on paper PMC10177510, “A Multicenter, Open-Label, Phase I/II Study of FN-1501 in Patients with Advanced Solid Tumors” (Cancers, 2023), this text covers Unbound fraction for one compound.

This series in a line: Unbound fraction. It counts as in vitro ADME.

Regarding `CN1CCN(Cc2ccc(NC(=O)c3[nH]ncc3Nc3ncnc4[nH]ccc34)cc2)CC1` [FN-1501], the Unbound fraction is reported as 30%.
